Experimental findings from PubChem BioAssay (NCI) are described below.

Among the test systems are OVCAR-4 ovarian; CCRF-CEM leukemia; A498 renal; HCT-116 colon; UACC-62 melanoma; CAKI-1 renal; HOP-92 NSCLC; TK-10 renal; K-562 leukemia; SF-295 CNS.
What all share (experiment): NCI tumour cell line growth inhibition, 48 h

Each structure is given as a SMILES string.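 Following 48 hours of exposure in 96-well plates, responses at five concentrations were used to interpolate endpoints linearly. Here, GI50 denotes the concentration required for 50% inhibition of growth. TGI: concentration producing complete growth inhibition.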

For the compound `O=S(=O)(SCc1ccccc1)C(c1ccccc1)c1ccccc1`, the TGI was over 100 µM in the experiment on OVCAR-4 ovarian; over 100 µM in the experiment with CCRF-CEM leukemia; over 100 µM in the experiment on A498 renal; over 100 µM in the experiment with HCT-116 colon; 85.7 µM in the experiment with UACC-62 melanoma; 93.8 µM in the experiment with CAKI-1 renal. Further, the TGI in the experiment with HOP-92 NSCLC was 35.5 µM; in the experiment on TK-10 renal, over 100 µM; in the experiment with K-562 leukemia it was over 100 µM; with SF-295 CNS, over 100 µM.
As to `COc1ccc(C[C@@H]2NC[C@@H](O)[C@@H]2OC(C)=O)cc1`, the GI50 in the experiment with OVCAR-4 ovarian is 25.9 µM; in the experiment on CCRF-CEM leukemia, 4.35 µM; with A498 renal, 1.14 µM; in the experiment on HCT-116 colon, 2.92 µM; in the experiment on UACC-62 melanoma, 3.19 µM; in the experiment on CAKI-1 renal, 30.3 µM. For the same compound, the GI50 in the experiment on K-562 leukemia is 1.1 µM; with SF-295 CNS it was 6.7 µM. In addition, the TGI in the experiment on HOP-92 NSCLC is 0.0448 µM; in the experiment with TK-10 renal, 0.254 µM; in the experiment with K-562 leukemia, over 100 µM; with SF-295 CNS, 90 µM.
Turning to `O=[N+]([O-])/C=C/c1cc2ccccc2[nH]1`, the TGI came out at 27.4 µM in the experiment on OVCAR-4 ovarian; 9.61 µM with CCRF-CEM leukemia; 34.4 µM in the experiment on A498 renal; 15.7 µM in the experiment with HCT-116 colon; 33.7 µM in the experiment with UACC-62 melanoma; 33.7 µM with CAKI-1 renal. The TGI in the experiment with HOP-92 NSCLC stood at 43.5 µM; in the experiment on TK-10 renal it was 32.2 µM; in the experiment with K-562 leukemia, 52.8 µM; in the experiment on SF-295 CNS, 43.9 µM.
Turning to `CCn1cc(-c2ccnc3[nH]ccc23)c(-c2cccc(NC(=O)Nc3ccc(OCc4ccccc4)cc3)c2)n1`, the GI50 was over 23.4 µM in the experiment on OVCAR-4 ovarian; 11.5 µM with CCRF-CEM leukemia; 7.64 µM in the experiment on A498 renal; 12.1 µM in the experiment with HCT-116 colon; 5.89 µM with UACC-62 melanoma; 6.71 µM with CAKI-1 renal. The GI50 in the experiment with HOP-92 NSCLC is over 25 µM; in the experiment with TK-10 renal, 24.8 µM; in the experiment on K-562 leukemia, 4.72 µM; with SF-295 CNS it was 4.55 µM. Further, the TGI in the experiment with OVCAR-4 ovarian, in the experiment with CCRF-CEM leukemia, in the experiment on A498 renal, with HCT-116 colon, in the experiment on UACC-62 melanoma and with CAKI-1 renal was over 25 µM each time. Also, the TGI in the experiment with HOP-92 NSCLC, in the experiment on TK-10 renal, in the experiment on K-562 leukemia and in the experiment with SF-295 CNS was over 25 µM throughout.
For the compound `CN1CCN(c2ccc(Nc3nc(N)c(C(=O)c4ccc5c(c4)OCCO5)s3)cc2)CC1`, the GI50 with OVCAR-4 ovarian is 4.02 µM; in the experiment on CCRF-CEM leukemia, 4.66 µM; with A498 renal, 2.3 µM; in the experiment with HCT-116 colon it was 2.27 µM; in the experiment on UACC-62 melanoma, 4.19 µM; in the experiment on CAKI-1 renal, 1.18 µM. In addition, the GI50 with HOP-92 NSCLC was 0.204 µM; with TK-10 renal, 3.14 µM; in the experiment on K-562 leukemia, 2.43 µM; with SF-295 CNS it was 3.65 µM. The TGI is 10.5 µM in the experiment on OVCAR-4 ovarian; 23.9 µM in the experiment on CCRF-CEM leukemia; 6.22 µM in the experiment on A498 renal; over 15.5 µM with HCT-116 colon; 9.35 µM in the experiment on UACC-62 melanoma; 7 µM in the experiment with CAKI-1 renal. Further, the TGI amounted to 3.5 µM with HOP-92 NSCLC, 10.1 µM with TK-10 renal, 18.3 µM in the experiment on K-562 leukemia and 10 µM in the experiment with SF-295 CNS.
Consider `Cc1ccc(NC(=O)C(=O)CC(=O)C2CCOC2=O)c(C)c1` (configuration not stated), for which the TGI with OVCAR-4 ovarian, in the experiment on CCRF-CEM leukemia, in the experiment on A498 renal, in the experiment on HCT-116 colon, with UACC-62 melanoma and in the experiment with CAKI-1 renal was over 100 µM throughout. Besides, the TGI in the experiment with HOP-92 NSCLC, with TK-10 renal, in the experiment on K-562 leukemia and in the experiment with SF-295 CNS was over 100 µM throughout.
As to `C[C@@H]1Cc2c([nH]c3ccccc23)[C@@H](c2c(F)cc(NC3CN(CCCF)C3)cc2F)N1CC(F)(F)CO`, the GI50 is 9.86 µM with OVCAR-4 ovarian; 3.44 µM with CCRF-CEM leukemia; 1.64 µM in the experiment on A498 renal; 1.94 µM with HCT-116 colon; 2.35 µM in the experiment on UACC-62 melanoma; 3.66 µM in the experiment with CAKI-1 renal. The GI50 in the experiment with HOP-92 NSCLC was 1.15 µM; in the experiment with TK-10 renal it was 14.4 µM; in the experiment on K-562 leukemia, 3.24 µM; with SF-295 CNS it was 2.25 µM. Further, the TGI in the experiment on OVCAR-4 ovarian amounted to 21.9 µM; with CCRF-CEM leukemia, 15.3 µM; in the experiment on A498 renal it was 8.82 µM; in the experiment with HCT-116 colon, 3.83 µM; in the experiment on UACC-62 melanoma it was 5.77 µM; with CAKI-1 renal it was 15.7 µM. The TGI was 6.36 µM in the experiment with HOP-92 NSCLC, 29.3 µM in the experiment on TK-10 renal, 11.8 µM with K-562 leukemia and 5.21 µM in the experiment with SF-295 CNS.
With `O=C(Cc1nc2ccccc2s1)C(=O)Nc1cccc(Cl)c1`, the TGI in the experiment with OVCAR-4 ovarian, with CCRF-CEM leukemia, with A498 renal, in the experiment on HCT-116 colon, in the experiment on UACC-62 melanoma and in the experiment with CAKI-1 renal was over 100 µM each time. For the same compound, the TGI with HOP-92 NSCLC, in the experiment on TK-10 renal, in the experiment with K-562 leukemia and in the experiment on SF-295 CNS was over 100 µM each time.
For `COC1=CC(=O)C(OC)=C(OC)C1=O`, the GI50 was 3.05 µM in the experiment with OVCAR-4 ovarian; 2.8 µM in the experiment with CCRF-CEM leukemia; over 100 µM in the experiment with A498 renal; 16 µM in the experiment with HCT-116 colon; 14.4 µM in the experiment on UACC-62 melanoma; 16.1 µM in the experiment with CAKI-1 renal. For the same compound, the GI50 with HOP-92 NSCLC is 9.38 µM; in the experiment on TK-10 renal, 15.3 µM; with K-562 leukemia, 2.29 µM; in the experiment on SF-295 CNS it was 17.8 µM. Besides, the TGI in the experiment with OVCAR-4 ovarian was 9.69 µM; with CCRF-CEM leukemia, 8.39 µM; in the experiment on A498 renal, over 100 µM; in the experiment on HCT-116 colon, 29.6 µM; in the experiment on UACC-62 melanoma, 27.9 µM; with CAKI-1 renal, 30 µM. For the same compound, the TGI in the experiment with HOP-92 NSCLC was 22.4 µM; in the experiment with TK-10 renal it was 30 µM; with K-562 leukemia, 6.05 µM; in the experiment on SF-295 CNS, 33.5 µM.
For `COc1cc(O)c2c(c1)C(=O)C=C(Cl)C2=O`, the TGI in the experiment on OVCAR-4 ovarian, in the experiment on CCRF-CEM leukemia, in the experiment on A498 renal, with HCT-116 colon, with UACC-62 melanoma and in the experiment with CAKI-1 renal was over 100 µM throughout. The TGI with HOP-92 NSCLC, with TK-10 renal, in the experiment with K-562 leukemia and in the experiment on SF-295 CNS was over 100 µM in each case.
As to `COC(=O)Nc1nc2ccc(C(=O)c3ccc(N(C)C4COC4)cc3)cc2[nH]1`, the GI50 in the experiment on OVCAR-4 ovarian was 2.85 µM; in the experiment with CCRF-CEM leukemia, 0.309 µM; in the experiment with A498 renal it was 0.413 µM; with HCT-116 colon, 0.36 µM; in the experiment on UACC-62 melanoma it was 0.38 µM; in the experiment on CAKI-1 renal, 0.435 µM. Besides, the GI50 is 0.62 µM in the experiment on HOP-92 NSCLC, 31.3 µM in the experiment with TK-10 renal, 0.333 µM with K-562 leukemia and 0.28 µM with SF-295 CNS. Moreover, the TGI in the experiment on OVCAR-4 ovarian, in the experiment with CCRF-CEM leukemia, in the experiment with A498 renal, with HCT-116 colon, with UACC-62 melanoma and in the experiment with CAKI-1 renal was over 100 µM throughout. For the same compound, the TGI with HOP-92 NSCLC is 45.9 µM; with TK-10 renal, over 100 µM; in the experiment with K-562 leukemia, over 100 µM; in the experiment on SF-295 CNS it was over 100 µM.
With `CC(=O)O[C@@H]1[C@@H](O)C2=C3[C@]4(C)[C@@H]1C(C)(C)C(=O)C[C@@H]4[C@]3(O)[C@H](OC(C)=O)[C@@]1(C[C@@H]1C)C2=O`, the TGI in the experiment on OVCAR-4 ovarian was 43.9 µM; in the experiment on CCRF-CEM leukemia it was 34.1 µM; in the experiment on A498 renal it was 45.8 µM; with HCT-116 colon it was 30.8 µM; in the experiment on UACC-62 melanoma, 33.2 µM; in the experiment on CAKI-1 renal, 33.2 µM. Besides, the TGI with HOP-92 NSCLC is 36.6 µM; in the experiment on TK-10 renal, 29.7 µM; in the experiment with K-562 leukemia, over 100 µM; in the experiment on SF-295 CNS, 42.1 µM.
On to `Nc1ccccc1NC(=O)c1ccc(CCCC(=O)Nc2ccc(C3CC3N)cc2)cc1` (configuration not stated), for which the GI50 was 2.21 µM with OVCAR-4 ovarian; 2.63 µM in the experiment with CCRF-CEM leukemia; 0.747 µM in the experiment on A498 renal; 0.375 µM in the experiment on HCT-116 colon; 0.573 µM with UACC-62 melanoma; 2.46 µM in the experiment with CAKI-1 renal. The GI50 with HOP-92 NSCLC is 0.359 µM; with TK-10 renal it was 0.36 µM; with K-562 leukemia, 0.658 µM; with SF-295 CNS, 1.96 µM. In addition, the TGI in the experiment with OVCAR-4 ovarian was 26.4 µM; in the experiment on CCRF-CEM leukemia, over 100 µM; in the experiment with A498 renal, 2.74 µM; with HCT-116 colon it was 16 µM; in the experiment with UACC-62 melanoma, 3.03 µM; in the experiment with CAKI-1 renal, 14.4 µM. The TGI in the experiment on HOP-92 NSCLC is 4.21 µM; in the experiment with TK-10 renal, 26.8 µM; in the experiment with K-562 leukemia, over 100 µM; in the experiment on SF-295 CNS it was 9.43 µM.
With `O=C(Nc1cccc(Cc2cccc(NC(=O)c3ccccc3)c2)c1)c1ccccc1`, the TGI was 39.8 µM in the experiment with OVCAR-4 ovarian; over 100 µM in the experiment with CCRF-CEM leukemia; over 100 µM with A498 renal; over 100 µM in the experiment on HCT-116 colon; over 100 µM with UACC-62 melanoma; 47.9 µM with CAKI-1 renal. For the same compound, the TGI with HOP-92 NSCLC was 44.3 µM; in the experiment on TK-10 renal, over 100 µM; in the experiment with K-562 leukemia it was over 100 µM; in the experiment with SF-295 CNS, 70.2 µM.
